Results on 41 molecules are retold here after the Deep4Chem optical property database.

The series is described as follows: solvent given as SMILES.

As to `O=C1/C(=C2\Nc3cc4ccc5cccc6ccc(c3C2=O)c4c56)Nc2cc3ccc4cccc5ccc(c21)c3c45`, the emission maximum (in C1CCOC1) was 707 nm.
`CCCCCCCCc1ccc(-c2c3cc(-c4cc(CCCCCCCC)c(-c5ccc(-c6sc(/C=C7\SC(=S)N(CC)C7=O)cc6CCCCCCCC)s5)s4)sc3c(-c3ccc(CCCCCCCC)s3)c3cc(-c4cc(CCCCCCCC)c(-c5ccc(-c6sc(/C=C7\SC(=S)N(CC)C7=O)cc6CCCCCCCC)s5)s4)sc23)s1` had an emission maximum (in ClC(Cl)Cl) of 670 nm.
In the case of `O=C1CCCC2=C1C(c1ccccc1)c1c(c3ccccc3oc1=O)N2` (stereo unspecified), the emission maximum (in CS(C)=O) worked out at 440 nm.
With `Cc1ccc(C#Cc2ccc(C#Cc3ccc(C#Cc4ccccc4C#N)cc3C#N)cc2C#N)cc1`, the emission maximum (in ClC(Cl)Cl) came out at 403 nm.
Regarding `CC1(C)c2ccccc2N(c2ccc(-c3nnc(-c4ccc(N5c6ccccc6C(C)(C)c6ccccc65)cc4)o3)cc2)c2ccccc21`, the emission maximum reads like this: (in Cc1ccccc1) 461 nm; (in O=P(c1ccccc1)(c1ccccc1)c1ccccc1Oc1ccccc1P(=O)(c1ccccc1)c1ccccc1) 472 nm.
For the molecule `COC(=O)c1ccc(/C=C2\N=C(c3ccc(OC)c(OC)c3)OC2=O)cc1`, the emission maximum (in C1COCCO1) came to 474 nm.
For the setting “in ClC(Cl)Cl”, `CCCCN1C(=O)c2ccc3c4ccc5c6c(ccc(c7ccc(c2c37)C1=O)c64)C(=O)N(CCCC)C5=O` returned an emission maximum of 533 nm.
`c1ccc(-c2cc(-c3ccccc3)cc(-c3ccc4c(c3)C3(c5cc(-c6cc(-c7ccccc7)cc(-c7ccccc7)c6)ccc5-4)c4ccccc4-c4c3c3c5ccccc5ccc3c3ccccc43)c2)cc1` had an emission maximum (in C1CCOC1) of 420 nm.
On to `Cc1ccccc1C1=C2C=c3c(oc4c3ccc3ccccc34)=[N+]2[B-](F)(F)n2c1cc1c3ccc4ccccc4c3oc12`, for which the emission maximum is given as 625 nm (in C1CCCCC1), 626.5 nm (in CCOC(C)=O) and 625 nm (in CO).
For the molecule `CCN(CC)c1ccc(-c2ccc(-c3nc(C#N)c4ccccc4n3)s2)cc1`, the emission maximum by setting is: (in CC#N) 539 nm; (in Cc1ccccc1) 471 nm.
Regarding `C[n+]1cc2ccc3c[n+](C)c4ccccc4c3c2c2ccccc21`, under “in CC#N”, the emission maximum was found to be 504 nm.
`FC(F)(F)c1ccc(C2=Cc3ccccc3[Si]2(c2ccccc2)c2ccccc2)cc1` had an emission maximum (in ClCCl) of 401 nm.
Take `CN(C)c1ccc2nc(/C=C/c3ccccc3)c(=O)oc2c1`: the emission maximum runs as follows: (in C1CCCCC1) 488 nm; (in C1COCCO1) 533 nm; (in CC#N) 567 nm; (in CC(C)=O) 557 nm; (in CCCCCCC) 485 nm; (in CCO) 574 nm. The emission maximum is recorded as 541 nm (in CCOC(C)=O); 571 nm (in CN(C)C=O); 581 nm (in CS(C)=O); 523 nm (in Cc1ccccc1); 542 nm (in ClC(Cl)Cl); 547 nm (in ClCCl).
Under “in ClC(Cl)Cl”, `CCCCCCCCN1C(=O)c2ccc3c4c(-c5ccc6c7ccccc7n(-c7ccccc7)c6c5)cc5c6c(cc(-c7ccc8c9ccccc9n(-c9ccccc9)c8c7)c(c7ccc(c2c37)C1=O)c64)C(=O)N(CCCCCCCC)C5=O` had an emission maximum of 644 nm.
Consider `CC1=[N+]2C(=C(c3c4ccccc4c(-c4ccccc4)c4ccccc34)c3ccc(C)n3[B-]2(F)F)C=C1`, for which the emission maximum reads like this: (in CC#N) 536 nm; (in CCCCCC) 527 nm; (in CCO) 528 nm; (in CN(C)C=O) 533 nm; (in Cc1ccccc1) 532 nm; (in ClCCl) 533 nm.
`CC(=O)OC[C@@H]1O[C@H](N2C=CC3=Nc4nc(C)[n+](C)cc4CN3C2=O)[C@@H](O)[C@H]1O`: the emission maximum is, setting by setting: (in CC#N) 416 nm; (in CCO) 418 nm; (in O) 414 nm.
`Cc1cc(C)c(B(c2c(C)cc(C)cc2C)c2cc3ccc4ccccc4c3c3c2ccc2ccccc23)c(C)c1`: the emission maximum came to 436 nm (in C1CCCCC1); 446 nm (in C1CCOC1); 449 nm (in CC#N); 443 nm (in ClC(Cl)Cl); 444 nm (in c1ccccc1).
On to `CCN(CC)c1ccc(-c2nc(Oc3ccc(-c4nc5ccccc5s4)cc3)nc(Oc3ccc(-c4nc5ccccc5s4)cc3)n2)cc1`, for which, for the setting “in CN(C)C=O”, the emission maximum is 419 nm.
With `N#Cc1ccc(-c2ccc(C3=CCC(c4ccccc4)CC3)s2)s1` (stereo unspecified), the emission maximum reads like this: (in C1CCOC1) 442 nm; (in CC#N) 448 nm; (in CCCCCC) 427 nm; (in CCO) 444 nm; (in OCCOCCO) 452 nm; (in c1ccncc1) 452 nm.
In the case of `O=C(O)C1=C/C(=C/C=[N+]2/c3cc(O)c(C[C@@H]4O[C@H](CO)[C@@H](O)C(O)[C@H]4O)cc3C[C@H]2C(=O)O)C[C@H](C(=O)O)N1` (stereo partly specified), the emission maximum reads like this: (in CO) 611 nm; (in O) 641 nm; (in OCCO) 608 nm; (in [2H]O[2H]) 641 nm.
`CC1(CCCCC(=O)NCCCCCCO)C(/C=C/C=C/C=C2/N(CCCS(=O)(=O)[O-])c3ccc(S(=O)(=O)[O-])cc3C2(C)C)=[N+](CCCS(=O)(=O)[O-])c2ccc(S(=O)(=O)[O-])cc21` (stereo unspecified) returned an emission maximum (in O) of 672 nm.
In turn, `C[Si](C)(C)c1ccc(-c2nc3ccccc3n2-c2ccccc2)cc1` registered an emission maximum (in ClCCl) of 358 nm.
`N#Cc1c(-n2c3ccc(Cl)cc3c3cc(Cl)ccc32)c(C#N)c(-n2c3ccc(Cl)cc3c3cc(Cl)ccc32)c(-n2c3ccc(Cl)cc3c3cc(Cl)ccc32)c1-n1c2ccc(Cl)cc2c2cc(Cl)ccc21` yielded an emission maximum (in Cc1ccccc1) of 518 nm.
The molecule `COc1ccc(-c2cc3c(cc2OC)-c2c(c4c(c5c2-c2cc(OC)c(-c6ccc(OC)cc6)cc2C5)C(=O)N(CCC(C)C)C4=O)C3)cc1` gave an emission maximum (in C1CCOC1) of 493 nm.
As to `CC(C)(C)c1ccc(-c2cc(-c3ccc(-c4cc(-c5ccc(C(C)(C)C)cc5)c(C(=O)NCc5cccs5)s4)s3)sc2C(=O)NCc2cccs2)cc1`, the emission maximum (in ClCCl) turned out to be 450 nm.
Same read-out and setting: for `Cc1cc(C)c(-c2c3ccccc3c3ccc4cc5c(-c6c(C)cc(C)cc6C)c6ccccc6c6ccc7cc2c3c4c7c56)c(C)c1` the value was 617 nm.
Consider `CC(C)[Si](C#Cc1c2nc3ccccc3nc2c(C#C[Si](C(C)C)(C(C)C)C(C)C)c2nc3c4ccccc4c(=O)c4ccccc4c3nc12)(C(C)C)C(C)C`, for which, where the note is “in ClCCl”, the emission maximum is reported as 627 nm.
On to `COC(=O)c1ccc(C#Cc2ccc(N(C)C)cc2)cc1`, for which the emission maximum reads like this: (in C1CCCCC1) 426 nm; (in C1CCOC1) 482 nm; (in C1COCCO1) 450 nm; (in CC1CCCO1) 464.51 nm; (in CC#N) 544.01 nm; (in CC(C)=O) 426.99 nm. The emission maximum reads like this: (in CC(C)CC(C)(C)C) 377.5 nm; (in CC(C)O) 441.5 nm; (in CCCCCCCCCCCCCCCC) 370 nm; (in CCCCCCCCCCCCCCCCCl) 382.5 nm; (in CCOC(C)=O) 470.5 nm; (in CCOCC) 458.51 nm. The emission maximum reads like this: (in CN(C)C=O) 524 nm; (in CO) 465.01 nm; (in CS(C)=O) 548.49 nm; (in Cc1ccccc1) 381 nm.
Consider `O=c1cc(-c2ccccc2)oc(-c2nc3ccccn3c2NC2CCCCC2)c1`, for which the emission maximum (in ClCCl) was found to be 475 nm.
On to `CN(C)c1ccc(/C=C/c2ccc3ccccc3[n+]2C)cc1`, for which the emission maximum turned out to be 618 nm (in CC#N), 645 nm (in ClCCl) and 622 nm (in O).
Molecule `O=[N+]([O-])c1ccc(/C2=C3N=C(C(c4ccccc4)=C/3c3ccccc3)/C(c3ccc([N+](=O)[O-])cc3)=c3\[nH]/c(c(-c4ccccc4)c3-c3ccccc3)=C(/c3ccc([N+](=O)[O-])cc3)C3=N/C(=C(/c4ccc([N+](=O)[O-])cc4)c4[nH]c2c(-c2ccccc2)c4-c2ccccc2)C(c2ccccc2)=C3c2ccccc2)cc1` had an emission maximum (in ClCCl) of 745 nm.
For the molecule `COc1ccc(-c2cc3c(s2)-c2sc(-c4ccc(OC)cc4)cc2P(c2ccccc2)(c2ccccc2)=[O+][B-]3(c2c(C)cc(C)cc2C)c2c(C)cc(C)cc2C)cc1`, the emission maximum (in C1CCOC1) amounted to 513 nm.
Turning to `CCN(CC)c1ccc2cc(C#N)/c(=N\C(=O)C(C)C)oc2c1`, the emission maximum reads like this: (in CCO) 470 nm; (in ClCCl) 460 nm.
For the molecule `CN1/C(=C/C=C(/C=C/c2sc3ccccc3[n+]2C)c2cc(F)cc(F)c2)Sc2ccccc21`, the emission maximum was determined as 670 nm (in CCO), 668 nm (in CO), 675 nm (in CS(C)=O) and 671 nm (in O).
As to `C=CCNc1ccc2ccc3oc4cc(=[N+](C)C)ccc-4nc3c2c1`, the emission maximum is, setting by setting: (in CC#N) 637 nm; (in CCO) 631 nm; (in ClCCl) 620 nm; (in O) 650 nm.
As for `COc1cc(/C=C/c2nc3ccccc3s2)c(OC)cc1/C=C/c1nc(C)nc(C)n1`, the emission maximum reads like this: (in C1CCOC1) 488 nm; (in CC#N) 499 nm; (in ClC(Cl)Cl) 494 nm; (in ClCCl) 496 nm.
In turn, `CC1=CC(/C=C/c2ccc(OCCCN=[N+]=[N-])cc2)=[N+]2C1=C(c1ccc(N3CCCCC3)cc1)c1c(C)cc(C)n1[B-]2(F)F` displayed an emission maximum (in CO) of 586 nm.
Molecule `Cc1ccc(-c2nc(-c3ccc(O)cc3)[nH]c2-c2ccc(C)cc2)cc1` returned an emission maximum (in CO) of 395 nm.
`COCCC1=Cc2nc1ccc1[nH]c(cc1CCOC)c1nc(c(N)cc3[nH]c2cc3CCOC)C(CCOC)=C1`: the emission maximum (in Cc1ccccc1) worked out at 748 nm.
Take `CCOC(=O)C1=CN(c2ccccc2)C=C(C(=O)OCC)C1`: the emission maximum reads like this: (in C1CCOC1) 426 nm; (in CO) 441 nm.
`CCOC(=O)CCOc1ccccc1C(c1c(C)[nH]c2ccccc12)c1c(C)[nH]c2ccccc12`: the emission maximum by setting is: (in C1CCCCC1) 329 nm; (in CC#N) 340 nm; (in CO) 345 nm; (in O) 350 nm.
